According to ChEMBL document CHEMBL1201862, “PubChem BioAssay data set” (2004):
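Dose response: 5 concentrations. Exposure: 48 h. Format: 96-well plates. Endpoint: linear interpolation; highest concentration if not reached. GI50: concentration for 50% inhibition of growth.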 Calls of active or inactive are those of the source. Rule as the data show it: active = GI50 up to about 1.1 µM and inactive = higher.

Legend:
Assay in all cases: NCI tumour cell line growth inhibition, 48 h
[1] = test system: UO-31
[2] = test system: NCI-H522
[3] = test system: MDA-MB-435
[4] = test system: RXF 393
[5] = test system: U-251
[6] = test system: UACC-257
[7] = test system: HL-60
[8] = test system: MDA-N
[9] = test system: SK-MEL-28
[10] = test system: OVCAR-8
[11] = test system: KM12
[12] = test system: EKVX
[13] = test system: NCI/ADR-RES
[14] = test system: HT-29
[15] = test system: Malme-3M
[16] = test system: CCRF-CEM
[17] = test system: HOP-62
[18] = test system: 786-0
[19] = test system: OVCAR-3
[20] = test system: SR

Measured: GI50

C[N+]1(C)CN(c2ccccc2)C2(CCN(CCCC(=O)c3cccs3)CC2)C1=O
inactive: [1] 62.4 µM | [2] > 100 µM | [3] > 100 µM | [4] > 100 µM | [5] > 100 µM | [6] 42.4 µM | [7] > 100 µM | [8] > 100 µM | [9] > 100 µM | [10] > 100 µM | [11] > 100 µM | [12] > 100 µM | [13] > 100 µM | [14] 31.8 µM | [15] > 100 µM | [16] 68.4 µM | [17] 33.4 µM | [18] > 100 µM | [19] 94.2 µM | [20] 60 µM

CC(NNC(=O)c1cc[n+]([BH2-]C#N)cc1)c1ccc(Cl)c(Cl)c1 (stereo unspecified)
inactive: [1] 30 µM | [2] 21.3 µM | [3] 34.8 µM | [4] 38.5 µM | [5] 40.2 µM | [6] 36.3 µM | [7] 25.8 µM | [8] 35.2 µM | [9] 40.8 µM | [10] 42.8 µM | [11] 40.5 µM | [12] 30.1 µM | [13] 30.5 µM | [14] 17.5 µM | [15] 30.9 µM | [16] 37.1 µM | [17] 45 µM | [18] 47.5 µM | [19] 26.9 µM | [20] 36 µM

c1ccc2c(c1)c1c(n2CCOCCCN2CCCCC2)CCCC1
inactive: [1] 12.6 µM | [2] 15.3 µM | [3] 18.1 µM | [4] 11.4 µM | [5] 16 µM | [6] 16.8 µM | [7] 10.1 µM | [8] 21.8 µM | [9] 20.1 µM | [10] 17.6 µM | [11] 15 µM | [12] 17.1 µM | [13] 17.9 µM | [14] 12 µM | [15] 18 µM | [17] 16.3 µM | [19] 13.2 µM | [20] 15.2 µM

COC(=O)C(NC(=O)OC(C)(C)C)P(=O)(OC)OC (stereo unspecified)
inactive: [1] > 100 µM | [2] > 100 µM | [3] > 100 µM | [4] > 100 µM | [5] > 100 µM | [6] > 100 µM | [7] > 100 µM | [8] > 100 µM | [9] > 100 µM | [10] > 100 µM | [11] > 100 µM | [12] > 100 µM | [13] > 100 µM | [14] > 100 µM | [15] > 100 µM | [17] > 100 µM | [18] > 100 µM | [19] > 100 µM | [20] > 100 µM

COc1ccc(C2C3CCc4ccccc4C3=NN2S(=O)(=O)c2cccc(C(=O)O)c2OC)cc1 (stereo unspecified)
inactive: [1] 19.4 µM | [2] 3.19 µM | [3] 1.79 µM | [4] 13.1 µM | [5] 7.21 µM | [7] 7.53 µM | [8] 2.52 µM | [10] 23.6 µM | [11] 2.48 µM | [12] 15 µM | [13] 2.81 µM | [14] 5 µM | [15] 13.3 µM | [16] 10.4 µM | [17] 21 µM | [18] 11.2 µM | [19] 5.35 µM | [20] 3.8 µM

COC12OC3(C4OC41)C(C(=O)O[C@H]3CO[Si](C)(C)C(C)(C)C)C2C(=O)Oc1ccccc1 (stereo partly specified)
inactive: [1] > 100 µM | [2] > 100 µM | [3] > 100 µM | [5] > 100 µM | [6] > 100 µM | [8] > 100 µM | [9] > 100 µM | [10] > 100 µM | [11] > 100 µM | [12] > 100 µM | [13] > 100 µM | [14] > 100 µM | [15] 92 µM | [16] 38.1 µM | [17] > 100 µM | [18] > 100 µM | [19] > 100 µM | [20] > 100 µM

CC(C)N(C)C(=O)C12C3C4C1C1C2C3C41C#N (stereo unspecified)
inactive: [1] > 100 µM | [2] > 100 µM | [3] > 100 µM | [4] > 100 µM | [5] > 100 µM | [6] > 100 µM | [7] > 100 µM | [8] > 100 µM | [9] > 100 µM | [10] > 100 µM | [11] > 100 µM | [12] > 100 µM | [13] > 100 µM | [14] > 100 µM | [16] > 100 µM | [17] > 100 µM | [18] > 100 µM | [19] > 100 µM | [20] > 100 µM

Cc1cc(S(=O)(=O)NC2=NCc3nc4ccccc4n32)c(S)cc1Cl
inactive: [1] 26.4 µM | [2] 34.9 µM | [3] 28.8 µM | [4] 12.9 µM | [5] 33.5 µM | [6] 24.2 µM | [7] 24.2 µM | [8] 26 µM | [9] 30.5 µM | [10] 28.1 µM | [11] 21.2 µM | [12] 29.3 µM | [13] 19.6 µM | [15] 22.5 µM | [16] 31.6 µM | [18] 21 µM | [19] 19.9 µM | [20] 20.9 µM

CC(C)CC1c2[nH]c3ccccc3c2C[C@H]2C(=O)NC(COC(C)(C)C)C(=O)N12 (stereo partly specified)
inactive: [1] 32.1 µM | [2] 16.4 µM | [3] 20.5 µM | [4] 14.7 µM | [5] 20.4 µM | [6] 19 µM | [7] 26.4 µM | [8] 21.8 µM | [9] 31.5 µM | [10] 33.1 µM | [11] 24.1 µM | [12] 24.9 µM | [13] 20.8 µM | [14] 20.9 µM | [15] 19.6 µM | [17] 46.2 µM | [18] 32.8 µM | [19] 3.05 µM | [20] 16.4 µM

COc1ccc(-c2c(-c3ccccc3)c(C)c3ccccn23)cc1
inactive: [1] > 100 µM | [2] 57.7 µM | [3] 52.2 µM | [5] > 100 µM | [6] 49.9 µM | [7] 48.4 µM | [8] 70.1 µM | [9] 79.8 µM | [10] > 100 µM | [11] 26.3 µM | [12] 99.5 µM | [13] > 100 µM | [14] 33.4 µM | [15] 95.9 µM | [16] 28.2 µM | [17] > 100 µM | [18] > 100 µM | [19] > 100 µM | [20] 26.4 µM

Cc1cc2nc3c(C(O)CO)nn(-c4ccccc4)c3nc2cc1C (stereo unspecified)
inactive: [1] 15.1 µM | [2] 22.6 µM | [3] 21.2 µM | [4] 14.5 µM | [5] 15.2 µM | [6] 22 µM | [7] 21.6 µM | [8] 18.3 µM | [9] 20.7 µM | [10] 23.2 µM | [11] 16.2 µM | [12] 19.6 µM | [13] 16.1 µM | [14] 15 µM | [17] 19.4 µM | [18] 17.9 µM | [19] 15.8 µM | [20] 6.65 µM
